From a melting point compilation (Tetko et al.; mined from patent text by program, amines drawn as free bases though some values may be those of a salt)

Row | melting point [°C] | SMILES
1 | 145 to 146 | Cc1nnc(-c2ccc3occ(-c4cccc(Cl)c4)c3c2)o1
2 | 198 to 199 | COc1ccc2c(c1)Sc1cc(C#N)ccc1N2
3 | 138 to 139 | CS(=O)(=O)c1ccc(-c2scnc2-c2ccc(F)cc2)cc1
4 | 232 to 233 | O=C(N[C@H](Cc1ccc(C(F)(F)F)cc1)[C@@H](O)c1cccc2ccccc12)c1ccc(C(F)(F)F)cc1 (racemic)
5 | 205 to 207 | COc1ccc(C2C3=C(COC3=O)Nc3ccc4cc(C)[nH]c4c32)c(F)c1 (stereo not given)
6 | 165 to 171 | CC(=O)N(O)Cc1ccccc1Nc1c(Cl)cccc1Cl
7 | 116 to 118 | CN(CCOc1ccc(C(N)=O)cc1)CCc1ccc([N+](=O)[O-])cc1
8 | 88 to 91 | Cc1nc2sccn2c1-c1ccc(C#N)cc1
9 | 240 to 243 | CN(Cc1ccc(NC(=O)C2=Cc3cc(-c4ccc(OCC(N)=O)cc4)ccc3S(=O)(=O)CC2)cc1)C1CCOCC1
10 | 202 to 203 | COCC1(C)CCOc2ccc(C#Cc3ccc(C(=O)O)cc3)cc21 (stereo not given)
11 | 63 to 64 | COc1ccc(CCCOCCCCCNCC(O)c2cc(Cl)c(N)c(Cl)c2)cc1 (stereo not given)
12 | 222 to 224 | O=c1ccn2c(n1)COc1ccc(Cl)cc1-2
13 | 174 | Nc1ccc(-c2cc(OCC(=O)N3CCOCC3)c3c(C(F)(F)F)cccc3n2)cc1
14 | 180 to 182 | COc1ccc(CNc2cc(C(N)=O)c([N+](=O)[O-])cc2[N+](=O)[O-])cc1Cl
15 | 65 | CCOCc1nc(C(C)(C)O)c(C(=O)OCOC(=O)C(C)(C)C)n1Cc1ccc(-c2ccccc2C(=O)O)cc1
16 | 97 to 99 | CCN=C(N)N(CC)N=C(C=Cc1ccc(OC(F)F)cc1)C=Cc1ccc(OC(F)F)cc1
17 | 115 to 117 | CC(CCCS(C)(=O)=O)C(c1cc(F)ccc1F)S(=O)(=O)c1ccc(Cl)cc1 (stereo not given)

Row | melting point [°C] | SMILES
18 | 204 | Cc1ccc2cccc(OCc3c(Cl)ccc(N(C)C(=O)CN4C(=O)c5ccccc5C4=O)c3Cl)c2n1
19 | 90 | COc1ccc(C(O)c2cccc3c2ccn3S(=O)(=O)c2ccc(C)cc2)cc1 (stereo not given)
20 | 112 to 114 | COc1ccc(S(=O)(=O)N(CC(=O)NO)Cc2ccccc2)cc1
21 | 58 to 60 | Clc1cccc2c1ccn2Cc1ccccc1
22 | 210 to 211 | O=C(O)c1cccc2c1CCc1cc(O)ccc1S2
23 | 112 to 115 | CS(=O)(=O)c1ccc(-n2cc(C(F)(F)F)nc2-c2ccc(-c3cscn3)cc2)cc1F
24 | 81 to 84 | CNC(Cc1ccccc1NC(=O)C(C)(C)C)c1ccsc1 (stereo not given)
25 | 136 to 137 | CSc1c[nH]c2ccc(C)cc12
26 | 220 | O=C1OC(=O)c2cc3cc(Cl)ccc3cc21
27 | > 280 | O=C(NN=Cc1c(O)ccc2cc(O)ccc12)c1cc2ccccc2cc1O
28 | 106 | Brc1ccc(C=Cc2cccc3ccccc23)cc1
29 | 188 to 191 | Cc1cnc(NCCc2ccccn2)c(=O)n1NC(=O)CCc1cc(Cl)ccc1Cl
30 | 180 to 181 | Cc1oc(-c2ccccc2)nc1COc1ccc(CCCC2OC(=O)NC2=O)cc1F (stereo not given)
31 | 145 to 147 | CCCOc1ccc(S(=O)(=O)N2CCC(C(=O)OCC)CC2)cc1-c1nc2cc3nc[nH]c3cc2c(=O)[nH]1
32 | 187 to 188 | O=C(NO)[C@H]1CN(C(=O)Nc2ccccc2)CCN1S(=O)(=O)c1ccc(-c2ccc(F)cc2)s1
33 | 138 to 140 | CCOc1ccc(C(=O)Nc2ccc(C(C)(C)C#N)cc2)cc1OCC
34 | 152 | COc1c(C)cc(-c2cc(-c3ccc(S(C)(=O)=O)cc3)c(N3CCOCC3)s2)nc1C

Continued, molecule first:

Row | SMILES | melting point [°C]
35 | COc1cccc(C(=O)N(C(=O)OCCl)N(C(=O)c2cc(C)cc(C)c2)C(C)(C)C)c1C | 117 to 119
36 | COC(=O)Cc1c(C(=O)OC)ccn1CCOS(C)(=O)=O | 99 to 101
37 | COC(=O)c1ccc(Br)c(CBr)c1 | 100 to 101
38 | Cc1c(Br)csc1C(=O)O | 188 to 189
39 | COc1cccc(CN2C(=O)N(c3cnn(Cc4c(C)noc4C)c3)C(=O)C2(C)C)c1 | 107 to 108
40 | O=C1CC2C(CC(OC(=O)c3ccccc3)C2C=CC(O)C2(F)CCCC2)O1 (stereo not given) | 73 to 74
41 | CCN(CC)C(=O)N(C1CCCCC1)C1CCN(C(=O)C(Cc2ccc(Cl)cc2)NC2CCNCC2)CC1 (stereo not given) | > 220
42 | CCCC(=O)c1sc(NC(=O)c2ccncc2)nc1-c1ccco1 | 191 to 194
43 | O=C(Nc1ccc2c(c1)CCC2)C(=O)N1CCC(Cc2ccccc2)CC1 | 106 to 109
44 | O=[N+]([O-])C1(CNC(CO)(CO)CO)CCCCC1 | 110 to 113
45 | Cc1cc(-c2cccc(C3=Nc4ccc(-n5cccc5)cc4NC(=O)C3)c2)ccn1 | 206
46 | CC(=O)OC1=CC2=CCC3C(CCC4(C)C(OC(C)=O)CCC34)C2CC1 (stereo not given) | 165 to 171
47 | c1cc(N=Nc2ccncc2)ccn1 | 87 to 89
48 | O=C(NC1CCCCCCC1)NS(=O)(=O)c1ccc(CCNC(=O)N2CCCCC2=O)cc1 | 170 to 172
49 | CC(=O)Nc1ccc(SC2SCC(OC(C)=O)C(OC(C)=O)C2OC(C)=O)cc1 (stereo not given) | 168 to 174
50 | O=C(O)c1cc(S(=O)(=O)N2CCSCC2)ccc1Br | 195 to 198
51 | Cc1nc(N2CCCCC2)ccc1N1CCCn2c1nc1c(Cl)ccc(C(OC(F)F)C(F)(F)F)c12 (stereo not given) | 164 to 167
52 | CC(=O)OC1CSC(Oc2cccc3ccoc23)C(OC(C)=O)C1OC(C)=O (stereo not given) | 152
53 | N#CC(N)(N)c1cccnc1 | 158
54 | COc1ccc(-c2sc3c(c2OC(C)=O)CCCC3)cc1 | 81
55 | O=P(O)(O)C(O)c1ccccc1 (stereo not given) | 160 to 162
56 | CCOC(=O)c1cc2ccnc(N(Cc3ccccc3)Cc3ccccc3)c2[nH]1 | 120 to 123

Row | SMILES | melting point [°C]
57 | CC1CC(=O)c2cc(O)cnc2C1 (stereo not given) | 210 to 212
58 | CCNC(=O)N1CCCC(n2nnnc2-c2cc(-c3cc(C(C)C)ccc3OC)c(O)cc2O)C1 (stereo not given) | 223 to 226
59 | CCCN1CC(CN2CC(=O)NC2=O)CC2c3cccc4[nH]cc(c34)CC21 (stereo not given) | 168 to 170
60 | Nc1c(Br)cc(C(=O)CCC(=O)O)cc1Br | 200 to 202
61 | Cc1cc2[nH]c(=O)c(=O)[nH]c2cc1C | > 250
62 | COc1cc(C)c(C=CC(C)=CC=CC(C)=CC(=O)n2ccnc2)c(C)c1C | 184 to 185
63 | COC(=O)C(Cc1c[nH]c2ccccc12)NC1CCC(c2ccccc2)(N(C)C)CC1 (stereo not given) | 60 to 65
64 | Cc1ccc(-n2c(-c3cccc4ccccc34)ccc2-c2cccc3ccccc23)cc1 | 105 to 106
65 | O=C(Nc1ccccn1)Nc1cccc2c1C1CCCCN1C2=O (stereo not given) | 142
66 | NC(=O)c1c(Br)cc(Br)c(CC(=O)O)c1Br | 245
67 | CCc1ccc(Nc2nc3cc(NC(=O)c4cc(OC)c(OC)c(OC)c4)ccc3o2)cc1 | > 250
68 | NC(=O)Oc1ccccc1CCCCC#CCSCC#CCCCCc1ccccc1OC(N)=O | 63
69 | O=C(O)c1cccc(Nc2nc(Oc3ccccc3)nc(Oc3ccccc3Cl)n2)c1 | 250 to 252
70 | c1ccc(-c2nnc(-c3ccccn3)o2)cc1 | 127 to 128
71 | CCCCCCCCCCCCCCCCCC(CCCCCCCCCCCCCCCCC)=NO | 66 to 67
72 | CCC(=O)NCCc1c[nH]c2ccc3c(c12)CCCO3 | 106 to 107
73 | N#Cc1cccc(C[C@H](N)C(=O)O)c1 | 248 to 250
74 | CC(C)(C)c1cc(SCCO)cc(C(C)(C)C)c1O | 66
75 | COc1ccc2c(Cc3c(Cl)cncc3Cl)nnc(-c3ccccc3)c2c1 | 206 to 208
76 | ON=Cc1cn2c(n1)COc1ccccc1-2 | 232 to 233
77 | COc1ccc(-c2[nH]cnc2-c2cc(OC)c(O)c(OC)c2)cc1O | 172 to 173
78 | O=C(CC1CCCCC1)Nc1c(Cl)ccc2nc(NC[C@@H](O)CO)ccc12 | 155 to 159

Row | SMILES | melting point [°C]
79 | C1=C(c2ccccc2)CCN(Cc2cncc(-c3ccccc3)c2)C1 | 80 to 82
80 | CC(C)(C)OC(=O)c1ncn2c1[C@@H]1CCN1C(=O)c1c(Br)cccc1-2 | 240 to 241
81 | COCCCNc1nc(N)c(C(=O)c2ccccc2[N+](=O)[O-])s1 | 170 to 172
82 | N#Cc1cc2c(Cl)ncnc2s1 | 185 to 190
83 | CCn1cnc2c(Nc3cccc([N+](=O)[O-])c3)nc(N[C@H]3CC[C@H](O)CC3)nc21 | 237 to 238
84 | O=[N+]([O-])c1cn2c(n1)OC(COc1ccc(N3CCC(Cc4cc5cc(OC(F)(F)F)ccc5o4)CC3)cc1)CC2 (stereo not given) | 142 to 143
85 | O=C(NCc1c[nH]c(=S)n1[C@H]1CCc2c(F)cc(F)cc2C1)c1ccco1 | 227 to 231
86 | CCCCn1c(=O)[nH]c(=O)c2c1ncn2CC(C)=O | 218
87 | COc1ccc(C(=O)NNC(=O)c2occ(-c3ccccc3)c2-c2ccccc2)cc1NC(=O)OC(C)(C)C | 137 to 141
88 | N#Cc1cccnc1N1CCN(CC(=O)Nc2cccc([N+](=O)[O-])c2)CC1 | 143 to 145
89 | N#CCC(=O)NCc1ccccc1Cl | 102 to 104
90 | [N-]=[N+]=NCC1=C(C(=O)O)N2C(=O)C(NC(=O)Cc3csc(=O)s3)C2SC1 (stereo not given) | 160
91 | O=c1ccn(-c2ccccc2Cl)nc1-c1ccnn1-c1ccccc1 | 138 to 139
92 | CCC(N)(CC)Cc1c[nH]c2ccccc12 | 92 to 94
93 | Nc1cc(-c2nc(-c3ccco3)no2)ccc1Cl | 203 to 204
94 | CC1CC2=CC(=O)CCC2C2C(O)CC3(C)C(O)CCC3C12 (stereo not given) | 163
95 | O=C(c1ccco1)N1CCN(c2nc3c(c(-c4ccc(F)cc4)n2)CCC3)CC1 | 124 to 125
96 | COC(=O)c1csc(C(=O)CBr)c1OC(=O)c1ccccc1 | 115 to 118
97 | Cc1ccc2nc(CCl)nc(Cl)c2c1 | 111 to 112
98 | COC1=CC(=O)C(Cc2ncn(C(c3ccccc3)(c3ccccc3)c3ccccc3)c2C)CC1 (stereo not given) | 145 to 148
99 | CCn1c(=O)c2c(nc(/C=C/c3ccc(OC)c(C)c3C)n2C)n(CC)c1=O | 208
100 | CN1Sc2cc3c(cc2CC1=O)CCCC3 | 202 to 203
